Results reported in patent publication US11266599B2, “Inhalable dry powder cytidine analogue composition and method of use as a treatment for cancer” (Lovelace Biomedical Research Institute, priority 2018, dated 2022).
Each block holds one compound with its values, some of them ahead of it.

Assays:
[1] = system: PD-L1; details: LC cell lines, in vitro; cited from earlier work
[2] = system: xenografts of human LC-derived cell lines; details: Rowett nude rat, systemic intraperitoneal injection, reference 29; cited from earlier work
[3] = room temperature; cited from earlier work
[4] = rats, intravenous 200 mg/kg for a month; cited from earlier work
[5] = Pharmacokinetics study of systemic, inhaled aqueous and inhaled dry powder 5AZA, with and without THU; type: in vivo, Sprague Dawley rat; details: THU 80 mg/kg oral
Experimental: The 5AZA aerosol was delivered into the lungs of rats using a nose only inhalation delivery system in which a 5AZA dry powder formulation and a 5AZA aqueous formulation aerosol is generated with a rotating brush generator or Pari nebulizer, respectively. […] At each time-point, systemic blood was collected into K3EDTA tubes for separation into plasma and lung, liver, and brain tissue was snap frozen in liquid nitrogen. Plasma and lung tissue samples were assayed via a liquid chromatography mass spectrometry assay and the average concentration versus time profile modeled with non-compartmental analysis.

SMILES: Nc1ncn([C@@H]2O[C@H](CO)[C@@H](O)[C@H]2O)c(=O)n1 [5AZA, 4-amino-1-β-D-ribofuranosyl-1,3,5-triazin-2(1H)-one]
expression of PD-L1 [1]: increased | reduction of tumor burden / suppression of tumor growth [2]: 31%

SMILES: Nc1ncn([C@H]2C[C@H](O)[C@@H](CO)O2)c(=O)n1 [DAC, 5-aza-2′-deoxyazacytidine]
stability in aqueous solution [3]: relatively unstable

SMILES: C[S+](C)[O-] [DMSO]
toxicity [4]: no toxicity

effect of addition of THU on PK profile of the dry powder formulation in brain [5]: greatly improved | effect of addition of THU on lung PK of 5AZA [5]: did not influence
SMILES: O=C1NC(O)CCN1[C@@H]1O[C@H](CO)[C@@H](O)[C@H]1O (stereo partly drawn) [THU, tetrahydrouridine]
